Results published in patent publication US20260070929A1, “METHODS AND COMPOSITIONS FOR MODULATING KRAS(G12D)” (Ranok Therapeutics (Hangzhou) Co. LTD., priority 2022, published 2026).

Tests used:
[1] = system: ASPC1 pancreatic adenocarcinoma cells [homozygous G12D]; test: Cancer cell line proliferation (CellTiter-Glo), ASPC1; format: cell-based; conditions: Homo sapiens, ASPC1, 72 h, 72 hr treatment, read-out: ASPC-1 CTG (EC50)
Method: (§1) The following cancer cell lines were employed: AGS gastric carcinoma [heterozygous G12D](ATCC, CRL-1739); A-427 lung carcinoma [heterozygous G12D](ATCC, HTB-53); ASPC1 pancreatic adenocarcinoma [homozygous G12D](ATCC, CRL-1682) and SW1990 pancreatic adenocarcinoma [homozygous G12D](ATCC CRL-2172). Cell lines were cultured essentially according to ATCC recommendations.
(§2) AGS, A-427, ASPC1, SW1990, and GP2D cells were plated in 96-well tissue culture plates at 4,000 cells/well and incubated at 37° C./5% CO2 for 72 hr in 100 μl of media. 3-fold serial dilutions of each test compound were prepared ranging from 20 μM to 1.02 nM. Each cell line was then treated with test compounds at various concentrations with a final concentration of 0.5% DMSO/well, and then incubated at 37° C./5% CO2 for 72 hr. 100 µl of CellTiter-Glo® Reagent (Promega Corporation, Madison, WI) was added to each well and processed according manufacturer's protocol. Results were analyzed and EC50 values were calculated in GraphPad 7 software.

[2] = target: T1, KRAS(G12D)/SOS1 (Homo sapiens, UniProt P01116, G12D); test: KRAS(G12D)/SOS1 homogeneous time-resolved fluorescence (HTRF) assay; format: binding; conditions: absence of GTP; 4° C., 3 hr
T1 construct: purchased Cisbio 63ADK000CB17PEH
Method: Binding of test compounds to KRAS(G12D) target protein, which in turn blocks KRAS(G12D) interaction with the SOS1 protein, was measured in the absences of GTP by homogeneous time-resolved fluorescence using the KRAS-G12D/SOS1 Binding Assay Kit (Cisbio, 63ADK000CB17PEH), following the manufacturer's instructions, except as noted. 3-fold serial dilutions of each test compound were prepared ranging from 20 µM to 1.02 nM. The test compound was mixed and incubated with reaction components, incubated in a sealed plate at 4° C. for 3 hr and fluorescence was measured using a PerkinElmer Envision plate reader. The KRAS(G12D)-SOS1 IC50 values (the concentration of 50% of the maximal inhibition) were calculated using GraphPad Prism 7 software.

[3] = system: A-427 lung carcinoma cells [heterozygous G12D]; test: Cancer cell line proliferation (CellTiter-Glo), A-427; format: cell-based; conditions: Homo sapiens, A-427 cells, 72 hr treatment, read-out: A427 CTG (EC50)
Method: as §1, §2

[4] = system: AGS gastric carcinoma cells [heterozygous G12D]; test: Cancer cell line proliferation (CellTiter-Glo), AGS; format: cell-based; conditions: Homo sapiens, 72 hr treatment, read-out: AGS CTG (EC50)
Method: as §1, §2

T1 sequence (P01116 1-188 isoform P01116-2 G12D): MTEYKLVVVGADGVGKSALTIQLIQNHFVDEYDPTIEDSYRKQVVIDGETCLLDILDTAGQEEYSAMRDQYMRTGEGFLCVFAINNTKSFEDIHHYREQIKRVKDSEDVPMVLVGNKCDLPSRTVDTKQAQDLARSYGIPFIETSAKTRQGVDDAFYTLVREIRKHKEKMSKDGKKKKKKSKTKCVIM

## CC(C)c1cc(-c2nnc(O)n2-c2ccc(CN3CCN(C(=O)C4CCN([C@H]5C[C@@H](COc6nc(N7CC8CCC(C7)N8)c7cnc(-c8cccc9cccc(Cl)c89)cc7n6)N(C)C5)CC4)CC3)cc2)c(O)cc1O [Compound 4]
[1]
  EC50: > 1000 nM
[2]
  IC50: 100 to 1000 nM

## CC(C)c1cc(-c2nnc(O)n2-c2ccc(CN3CCN(C(=O)C4CCN([C@H]5C[C@@H](COc6nc(N7CC8CCC(C7)N8)c7cnc(-c8cccc9cccc(Cl)c89)c(F)c7n6)N(C)C5)CC4)CC3)cc2)c(O)cc1O [Compound 5]
[1]
  EC50: > 1000 nM
[2]
  IC50: < 100 nM
[3]
  EC50: > 1000 nM

## CCNC(=O)c1nnc(-c2cc(C(C)C)c(O)cc2O)n1-c1ccc(CN2CCN(C(=O)C3CCN([C@H]4C[C@@H](COc5nc(N6CC7CCC(C6)N7)c6cnc(-c7cccc8cccc(Cl)c78)c(F)c6n5)N(C)C4)CC3)CC2)cc1 [Compound 6]
[1]
  EC50: > 1000 nM
[2]
  IC50: 100 to 1000 nM
[4]
  EC50: 100 to 1000 nM
[3]
  EC50: 100 to 1000 nM

## CNC(=O)c1nnc(-c2cc(C(C)C)c(O)cc2O)n1-c1ccc(CN2CCN(C(=O)C3CCN([C@H]4C[C@@H](COc5nc(N6CC7CCC(C6)N7)c6cnc(-c7cccc8cccc(Cl)c78)c(F)c6n5)N(C)C4)CC3)CC2)cc1 [Compound 7]
[1]
  EC50: 100 to 1000 nM
[2]
  IC50: 100 to 1000 nM
[4]
  EC50: < 100 nM
[3]
  EC50: 100 to 1000 nM

## CNC(=O)c1nnc(-c2cc(C)c(O)cc2O)n1-c1ccc(CN2CCN(C(=O)C3CCN([C@H]4C[C@@H](COc5nc(C6CC7CCC(C6)N7)c6cnc(-c7cccc8cccc(Cl)c78)c(F)c6n5)N(C)C4)CC3)CC2)cc1 (some centres unmarked) [Compound 8]
[1]
  EC50: > 1000 nM
[2]
  IC50: < 100 nM
[4]
  EC50: > 1000 nM
[3]
  EC50: > 1000 nM

## CCc1cc(-c2nnc(C(=O)NC)n2-c2ccc(CN3CCN(C(=O)C4CCN([C@H]5C[C@@H](COc6nc(C7CC8CCC(C7)N8)c7cnc(-c8cccc9cccc(Cl)c89)c(F)c7n6)N(C)C5)CC4)CC3)cc2)c(O)cc1O (some centres unmarked) [Compound 9]
[1]
  EC50: > 1000 nM
[2]
  IC50: 100 to 1000 nM
[4]
  EC50: 100 to 1000 nM
[3]
  EC50: > 1000 nM

## C#Cc1cccc2cccc(-c3ncc4c(N5CC6CCC(C5)N6)nc(OCC5(CN6CCN(Cc7ccc(-n8c(O)nnc8-c8cc(C(C)C)c(O)cc8O)cc7)CC6)CC5)nc4c3F)c12 [Compound 10]
[1]
  EC50: > 1000 nM
[2]
  IC50: < 100 nM
[4]
  EC50: 100 to 1000 nM
[3]
  EC50: 100 to 1000 nM

## C#Cc1cccc2cccc(-c3ncc4c(N5CC6CCC(C5)N6)nc(OCC5(CN6CCN(Cc7ccc8c(c7)CN(C(=O)c7cc(C(C)C)c(O)cc7O)C8)CC6)CC5)nc4c3F)c12 [Compound 11]
[1]
  EC50: 100 to 1000 nM
[2]
  IC50: < 100 nM
[4]
  EC50: 100 to 1000 nM
[3]
  EC50: 100 to 1000 nM

## C#Cc1cccc2cccc(-c3ncc4c(N5CC6CCC(C5)N6)nc(OCC5(CN6CCN(Cc7ccc(-n8c(C(=O)NCC)nnc8-c8cc(C(C)C)c(O)cc8O)cc7)CC6)CC5)nc4c3F)c12 [Compound 12]
[1]
  EC50: 100 to 1000 nM
[2]
  IC50: < 100 nM
[4]
  EC50: < 100 nM
[3]
  EC50: < 100 nM

## C#Cc1cccc2cccc(-c3ncc4c(N5CC6CCC(C5)N6)nc(OCCN5CCN(Cc6ccc(-n7c(O)nnc7-c7cc(C(C)C)c(O)cc7O)cc6)CC5)nc4c3F)c12 [Compound 13]
[1]
  EC50: > 1000 nM
[2]
  IC50: 100 to 1000 nM
[4]
  EC50: 100 to 1000 nM
[3]
  EC50: 100 to 1000 nM

## C#Cc1cccc2cccc(-c3ncc4c(N5CC6CCC(C5)N6)nc(OCCN5CCN(Cc6ccc7c(c6)CN(C(=O)c6cc(C(C)C)c(O)cc6O)C7)CC5)nc4c3F)c12 [Compound 14]
[1]
  EC50: 100 to 1000 nM
[2]
  IC50: 100 to 1000 nM
[4]
  EC50: 100 to 1000 nM
[3]
  EC50: 100 to 1000 nM

## CCNC(=O)c1nnc(-c2cc(C(C)C)c(O)cc2O)n1-c1ccc(CN2CCN(C[C@H]3C[C@@H](COc4nc(N5CC6CCC(C5)N6)c5cnc(-c6cc(O)cc7ccccc67)c(F)c5n4)N(C)C3)CC2)cc1 [Compound 95]
[2]
  IC50: < 100 nM
[4]
  EC50: < 100 nM
[3]
  EC50: 100 to 1000 nM

## C#Cc1cccc2cc(O)cc(-c3ncc4c(N5CC6CCC(C5)N6)nc(OC[C@@H]5C[C@H](N6CCN(Cc7ccc(-n8c(C(=O)NCC)nnc8-c8cc(C(C)C)c(O)cc8O)cc7)CC6)CN5C)nc4c3F)c12 [Compound 96]
[2]
  IC50: < 100 nM
[4]
  EC50: 100 to 1000 nM
[3]
  EC50: 100 to 1000 nM

## C#Cc1cccc2cc(O)cc(-c3ncc4c(N5CC6CCC(C5)N6)nc(OC[C@@H]5C[C@H](N6CCN(C(=O)C7CCN(Cc8ccc9c(c8)CN(C(=O)c8cc(C(C)C)c(O)cc8O)C9)CC7)CC6)CN5C)nc4c3F)c12 [Compound 97]
[2]
  IC50: < 100 nM
[4]
  EC50: 100 to 1000 nM
[3]
  EC50: 100 to 1000 nM

## C#Cc1cccc2cc(O)cc(-c3ncc4c(N5CC6CCC(C5)N6)nc(OC[C@@H]5C[C@H](N6CCN(Cc7ccc(-n8c(C(=O)NC(C)C(F)(F)F)nnc8-c8cc(C(C)C)c(O)cc8O)cc7)CC6)CN5C)nc4c3F)c12 (some centres unmarked) [Compound 98]
[2]
  IC50: < 100 nM
[4]
  EC50: 100 to 1000 nM
[3]
  EC50: 100 to 1000 nM

## C#Cc1cccc2cc(O)cc(-c3ncc4c(N5CC6CCC(C5)N6)nc(OC[C@@H]5C[C@H](N6CCN(Cc7ccc(-n8c(C(=O)NCC(F)(F)F)nnc8-c8cc(CC)c(O)cc8O)cc7)CC6)CN5C)nc4c3F)c12 [Compound 99]
[2]
  IC50: < 100 nM
[4]
  EC50: 100 to 1000 nM
[3]
  EC50: 100 to 1000 nM

## CC(C)c1cc(-c2nnc(C(=O)NC(C)C(F)(F)F)n2-c2ccc(CN3CCN([C@H]4C[C@@H](COc5nc(N6CC7CCC(C6)N7)c6cnc(-c7cc(O)cc8ccccc78)c(F)c6n5)N(C)C4)CC3)cc2)c(O)cc1O (some centres unmarked) [Compound 100]
[2]
  IC50: < 100 nM
[4]
  EC50: < 100 nM
[3]
  EC50: 100 to 1000 nM

## CC(C)c1cc(-c2nnc(C(=O)NCC(F)(F)F)n2-c2ccc(CN3CCN([C@H]4C[C@@H](COc5nc(N6CC7CCC(C6)N7)c6cnc(-c7cc(O)cc8ccccc78)c(F)c6n5)N(C)C4)CC3)cc2)c(O)cc1O [Compound 101]
[2]
  IC50: < 100 nM
[4]
  EC50: < 100 nM
[3]
  EC50: 100 to 1000 nM

## COc1cccc2cccc(-c3ncc4c(N5CC6CCC(C5)N6)nc(OC[C@@H]5C[C@H](N6CCN(C(=O)C7CCN(Cc8ccc9c(c8)CN(C(=O)c8cc(C(C)C)c(O)cc8O)C9)CC7)CC6)CN5C)nc4c3F)c12 [Compound 104]
[2]
  IC50: > 1000 nM
[4]
  EC50: 100 to 1000 nM
[3]
  EC50: 100 to 1000 nM

## CCc1cc(-c2nnc(C(=O)NCC(F)(F)F)n2-c2ccc(CN3CCN([C@H]4C[C@@H](COc5nc(N6CC7CCC(C6)N7)c6cnc(-c7cccc8cccc(OC)c78)c(F)c6n5)N(C)C4)CC3)cc2)c(O)cc1O [Compound 105]
[2]
  IC50: > 1000 nM
[4]
  EC50: 100 to 1000 nM
[3]
  EC50: 100 to 1000 nM

## COc1cccc2cccc(-c3ncc4c(N5CC6CCC(C5)N6)nc(OC[C@@H]5C[C@H](N6CCN(Cc7ccc(-n8c(C(=O)NC(C)C(F)(F)F)nnc8-c8cc(C(C)C)c(O)cc8O)cc7)CC6)CN5C)nc4c3F)c12 (some centres unmarked) [Compound 106]
[2]
  IC50: > 1000 nM
[4]
  EC50: < 100 nM
[3]
  EC50: 100 to 1000 nM

## CCc1cc(-c2nnc(C(=O)NCC(F)(F)F)n2-c2ccc(CN3CCN(C[C@H]4CC[C@@H](COc5nc(N6CC7CCC(C6)N7)c6cnc(-c7cccc8cccc(C)c78)c(F)c6n5)N4C)CC3)cc2)c(O)cc1O [Compound 108]
[2]
  IC50: 100 to 1000 nM
[4]
  EC50: 100 to 1000 nM
[3]
  EC50: 100 to 1000 nM

## CC(C)c1cc(-c2nnc(C(=O)NCC(F)(F)F)n2-c2ccc(CN3CCN([C@H]4C[C@@H](COc5nc(N6CC7CCC(C6)N7)c6cnc(-c7cccc8cccc(F)c78)c(F)c6n5)N(C)C4)CC3)cc2)c(O)cc1O [Compound 109]
[2]
  IC50: 100 to 1000 nM
[4]
  EC50: < 100 nM
[3]
  EC50: 100 to 1000 nM

## CC(C)c1cc(-c2nnc(C(=O)NC(C)C(F)(F)F)n2-c2ccc(CN3CCN(C[C@H]4C[C@@H](COc5nc(N6CC7CCC(C6)N7)c6cnc(-c7cc(O)cc8ccccc78)c(F)c6n5)N(C)C4)CC3)cc2)c(O)cc1O (some centres unmarked) [Compound 118]
[2]
  IC50: < 100 nM
[4]
  EC50: < 100 nM
[3]
  EC50: 100 to 1000 nM

## C#Cc1cccc2cc(O)cc(-c3ncc4c(N5CC6CCC(C5)N6)nc(OCC5(CN6CCC(C(=O)N7CCN(Cc8ccc(-n9c(C(=O)NCC(F)(F)F)nnc9-c9cc(C(C)C)c(O)cc9O)cc8)CC7)CC6)CC5)nc4c3F)c12 [Compound 119]
[2]
  IC50: < 100 nM
[4]
  EC50: < 100 nM
[3]
  EC50: 100 to 1000 nM

## C#Cc1cccc2cc(O)cc(-c3ncc4c(N5CC6CCC(C5)N6)nc(OCC5(CN6CCC(C(=O)N7CCN(Cc8ccc9c(c8)CN(C(=O)c8cc(C(C)C)c(O)cc8O)C9)CC7)CC6)CC5)nc4c3F)c12 [Example 3, 4-{5-[(4-{1-[(1-{[(4-{3,8-diazabicyclo[3.2.1]octan-3-yl}-7-(8-ethynyl-3-hydroxynaphthalen-1-yl)-8-fluoropyrido[4,3-d]pyrimidin-2-yl)oxy]methyl}cyclopropyl)methyl]piperidine-4-carbonyl}piperazin-1-yl)methyl]-1,3-dihydroisoindole-2-carbonyl}-6-isopropylbenzene-1,3-diol]
[2]
  IC50: < 100 nM
[4]
  EC50: < 100 nM
[3]
  EC50: 100 to 1000 nM
